Results: patent US20090082399A1, “Carbamate derivatives as positive allosteric modulators of metabotropic glutamate receptors” (Addex Pharma SA, priority 2005, published 2009)
pEC50, pIC50: −log10 of the molar value.

What was measured:
rat mGluR5 = target: T1, rat mGluR5 (Rattus norvegicus, UniProt P31424); assay: mGluR5 assay on HEK-expressing rat mGluR5 (fluorescent cell based Ca2+ mobilization assay); conditions: for activation of rat mGluR5 receptors without co-addition of glutamate: HEK-rat mGluR5 cell line, no added glutamate or mGluR5 agonist; for pEC50: HEK-293 cells stably expressing rat mGluR5, no co-addition of glutamate, mean of at least three independent experiments in duplicate, read-out: Ca2+ Flux (mean EC50)
T1 construct: expressed in transfected cells
Protocol: Positive functional expression of HEK-293 cells stably expressing rat mGluR5 receptor was determined by measuring intracellular Ca^2+ changes using a Fluorometric Imaging Plate Reader (FLIPR, Molecular Devices, Sunnyvale, Calif.) in response to glutamate or selective known mGluR5 agonists and antagonists. Rat mGluR5 RT-PCR products in HEK-293 cells were sequenced and found 100% identical to rat mGluR5 Genbank reference sequence (NM_017012). HEK-293 cells expressing mGluR5 were maintained in media containing DMEM, dialyzed Fetal Bovine Serum (10%), Glutamax™ (2 mM), Penicillin (100 units/ml), Streptomycin (100 μg/ml), Geneticin (100 μg/ml) and Hygromycin-B (40 μg/ml) at 37° C./5% CO2.
After one day of incubation, cells were washed with assay buffer containing: 142 mM NaCl, 6 mM KCl, 1 mM […], 1 mM CaCl2, 20 mM HEPES, 1 g/L glucose, 0.125 mM sulfinpyrazone, pH 7.4. After 60 min of loading with 4 uM Fluo-4 (TefLabs, Austin, Tex.), the cells were washed three times with 50 μl of PBS Buffer and resuspended in 45 μl of assay Buffer. The plates were then transferred to a Fluorometric Imaging Plate Reader (FLIPR, Molecular Devices, Sunnyvale, Calif.) for the assessment of intracellular calcium flux. After monitoring the baseline fluorescence for 10 seconds, increasing concentrations of representative compound (from 0.01 to 60 μM) of the present invention diluted in Assay Buffer (15 μl of 4× dilutions) was added to the cell. The final DMSO concentration in the assay was 0.3%. In each experiment, fluorescence was then monitored as a function of time for 3 minutes and the data analyzed using Microsoft Excel and GraphPad Prism. Each data point was also measured two times.
Under these experimental conditions, this HEK-rat mGluR5 cell line is able to directly detect positive allosteric modulators without the need of co-addition of glutamate or mGluR5 agonist.
The concentration-response curves of representative compounds of the present invention were generated using the Prism GraphPad software (Graph Pad Inc, San Diego, USA). The curves were fitted to a four-parameter logistic equation:
(Y=Bottom+(Top−Bottom)/(1+10̂((Log EC50−X)*Hill Slope)
allowing determination of EC50 values.
The Table 1 below represents the mean EC50 obtained from at least three independent experiments of selected molecules performed in duplicate.

mGluR5 [1] = target: T2, mGluR5 (Rattus norvegicus, UniProt P31424); conditions: cited from earlier work
T2 construct: positive allosteric modulators of mGluR5 receptors in native preparations; endogenous in cells; host or cells: primary cortical astrocytes from Sprague-Dawley rat embryos (E16-19)

mGluR5 [2] = target: T2, mGluR5; assay: mGluR5 binding assay ([3H]-MPEP, rat brain membranes); conditions: 3 nM [3H]-MPEP, rat cortex membranes, 1 h at 4° C.; read-out: IC50, inhibition of [3H]-MPEP binding
Source text: Activity of compounds of the invention was examined following a radioligand binding technique using whole rat brain and tritiated 2-methyl-6-(phenylethynyl)-pyridine ([^3H]-MPEP) as a ligand following similar methods than those described in Gasparini F. et al. (2002) Bioorg. Med. Chem. Lett., 12, 407-409 and in Anderson J. F. et al. J. Pharmacol. Exp. Ther. 2002, 303, 3, 1044-1051.
Cortices were dissected out from brains of 200-300 g Sprague-Dawley rats (Charles River Laboratories, L'Arbresle, France). Tissues were homogenized in 10 volumes (vol/wt) of ice-cold 50 mM Hepes-NaOH (pH 7.4) using a Polytron disrupter (Kinematica AG, Luzern, Switzerland) and centrifuged for 30 min at 40,000 g. (4° C.). […] Protein concentration was determined by the Bradford method (Bio-Rad protein assay, Reinach, Switzerland) with bovine serum albumin as standard.
Membranes were thawed and resuspended in binding buffer containing 20 mM HEPES-NaOH, 3 mM MgCl2, 3 mM CaCl2, 100 mM NaCl, pH 7.4. […] Radioactivity was determined by liquid scintillation spectrometry using a 96-well plate reader (TopCount, Perkin-Elmer, Downers Grove, USA).
The inhibition curves were generated using the Prism GraphPad program (Graph Pad Software Inc, San Diego, USA). […] The mean of IC50 obtained from at least three independent experiments of selected molecules performed in duplicate were calculated.

T1 sequence (P31424 21-1171 isoform P31424-2 limits assumed): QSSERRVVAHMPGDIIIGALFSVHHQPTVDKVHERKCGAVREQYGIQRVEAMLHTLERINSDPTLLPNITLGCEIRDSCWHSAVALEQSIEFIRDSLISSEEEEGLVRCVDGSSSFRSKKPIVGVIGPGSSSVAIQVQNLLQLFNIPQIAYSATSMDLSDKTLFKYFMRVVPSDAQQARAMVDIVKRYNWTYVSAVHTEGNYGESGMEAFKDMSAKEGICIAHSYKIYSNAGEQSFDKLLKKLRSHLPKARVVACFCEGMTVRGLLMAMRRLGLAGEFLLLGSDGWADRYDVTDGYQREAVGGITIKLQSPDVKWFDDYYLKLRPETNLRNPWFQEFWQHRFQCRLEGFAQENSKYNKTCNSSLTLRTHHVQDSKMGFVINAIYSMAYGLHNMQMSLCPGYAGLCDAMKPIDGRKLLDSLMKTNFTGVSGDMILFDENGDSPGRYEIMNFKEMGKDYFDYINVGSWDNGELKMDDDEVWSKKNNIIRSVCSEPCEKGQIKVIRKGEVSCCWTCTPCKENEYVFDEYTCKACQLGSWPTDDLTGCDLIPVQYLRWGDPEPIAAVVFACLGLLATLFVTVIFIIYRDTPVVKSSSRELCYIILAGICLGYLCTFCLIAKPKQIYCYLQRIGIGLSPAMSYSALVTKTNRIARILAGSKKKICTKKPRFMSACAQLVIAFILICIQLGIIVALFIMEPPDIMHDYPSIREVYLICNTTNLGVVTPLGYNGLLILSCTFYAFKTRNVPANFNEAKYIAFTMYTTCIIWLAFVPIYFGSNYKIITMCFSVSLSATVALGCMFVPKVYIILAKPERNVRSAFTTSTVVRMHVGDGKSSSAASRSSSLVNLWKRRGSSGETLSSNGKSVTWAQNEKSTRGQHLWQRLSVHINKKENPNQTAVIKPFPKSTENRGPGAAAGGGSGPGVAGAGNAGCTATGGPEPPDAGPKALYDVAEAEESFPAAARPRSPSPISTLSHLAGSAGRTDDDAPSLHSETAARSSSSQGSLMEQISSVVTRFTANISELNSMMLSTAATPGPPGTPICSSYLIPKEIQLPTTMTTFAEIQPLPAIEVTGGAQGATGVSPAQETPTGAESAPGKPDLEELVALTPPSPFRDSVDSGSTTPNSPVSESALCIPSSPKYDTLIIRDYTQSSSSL
T2 sequence (P31424 21-1203): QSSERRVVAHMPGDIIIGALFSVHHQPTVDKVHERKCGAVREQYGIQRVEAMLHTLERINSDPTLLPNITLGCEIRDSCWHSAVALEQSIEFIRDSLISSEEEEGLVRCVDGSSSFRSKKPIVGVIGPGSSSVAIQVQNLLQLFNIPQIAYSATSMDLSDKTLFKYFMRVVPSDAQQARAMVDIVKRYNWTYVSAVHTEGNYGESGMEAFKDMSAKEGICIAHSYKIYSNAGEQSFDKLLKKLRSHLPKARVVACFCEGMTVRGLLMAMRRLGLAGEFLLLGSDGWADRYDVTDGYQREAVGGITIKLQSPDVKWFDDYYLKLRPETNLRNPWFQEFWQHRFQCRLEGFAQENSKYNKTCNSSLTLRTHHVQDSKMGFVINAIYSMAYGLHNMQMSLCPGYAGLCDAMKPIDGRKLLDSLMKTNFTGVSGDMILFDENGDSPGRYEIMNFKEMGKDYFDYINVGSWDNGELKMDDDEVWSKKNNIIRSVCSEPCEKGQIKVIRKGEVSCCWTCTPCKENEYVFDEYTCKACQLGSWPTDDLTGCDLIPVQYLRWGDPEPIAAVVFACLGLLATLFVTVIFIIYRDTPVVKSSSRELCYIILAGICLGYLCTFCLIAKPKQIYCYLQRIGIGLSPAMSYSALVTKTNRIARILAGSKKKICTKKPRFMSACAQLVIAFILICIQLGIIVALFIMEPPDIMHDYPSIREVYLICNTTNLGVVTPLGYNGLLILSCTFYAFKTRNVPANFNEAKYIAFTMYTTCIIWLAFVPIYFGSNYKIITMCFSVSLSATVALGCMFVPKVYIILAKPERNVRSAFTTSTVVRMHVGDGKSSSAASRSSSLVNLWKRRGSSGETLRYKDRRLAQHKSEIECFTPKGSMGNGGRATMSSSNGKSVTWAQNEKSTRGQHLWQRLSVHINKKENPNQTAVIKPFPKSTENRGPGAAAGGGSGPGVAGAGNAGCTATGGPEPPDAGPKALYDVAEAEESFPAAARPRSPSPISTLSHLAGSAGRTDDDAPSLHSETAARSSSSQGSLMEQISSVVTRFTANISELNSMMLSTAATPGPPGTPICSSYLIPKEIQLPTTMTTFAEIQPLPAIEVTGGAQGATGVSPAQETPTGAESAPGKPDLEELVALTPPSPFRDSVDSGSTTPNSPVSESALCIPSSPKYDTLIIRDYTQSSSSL

Row | pEC50 (rat mGluR5) | SMILES | also measured
1 |  | N#Cc1cccc(C(=O)Nc2cc(-c3ccccc3)nn2-c2ccccc2)c1 [CDPPB, reference compound] | activation of rat mGluR5 receptors without co-addition of glutamate (rat mGluR5): activating; activity in rat cortical astrocytes culture in the absence of added glutamate (mGluR5 [1]): inactive
2 |  | O=C(Nc1ccc(Cl)cc1CN1C(=O)c2ccccc2C1=O)c1ccccc1O [CPPHA, reference compound] | activation of rat mGluR5 receptors without co-addition of glutamate (rat mGluR5): activating; activity in rat cortical astrocytes culture in the absence of added glutamate (mGluR5 [1]): inactive
3 |  | Fc1cccc(/C=N/N=C/c2cccc(F)c2)c1 [DFB, reference compound] | activation of rat mGluR5 receptors without co-addition of glutamate (rat mGluR5): activating; activity in rat cortical astrocytes culture in the absence of added glutamate (mGluR5 [1]): inactive
4 | 5.00 to 6.00 | O=C(Nc1ccc(F)cc1)O[C@H]1CCCN(C(=O)c2ccc(F)cc2)C1 [Example 1, (4-Fluoro-phenyl)-carbamic acid (S)-1-(4-fluoro-benzoyl)-piperidin-3-yl ester] | pIC50 (mGluR5 [2]): > 4.52
5 | 5.00 to 6.00 | O=C(Nc1ccc(Cl)cc1)O[C@H]1CCCN(C(=O)c2ccc(F)cc2)C1 [Example 2, (4-Chloro-phenyl)-carbamic acid (S)-1-(4-fluoro-benzoyl)-piperidin-3-yl ester] | 
6 | 5.00 to 6.00 | COc1ccc(NC(=O)O[C@H]2CCCN(C(=O)c3ccc(F)cc3)C2)cc1 [Example 3, (4-Methoxy-phenyl)-carbamic acid (S)-1-(4-fluoro-benzoyl)-piperidin-3-yl ester] | 
7 | > 6.00 | O=C(Nc1ccccc1)O[C@H]1CCCN(C(=O)c2ccc(F)cc2)C1 [Example 4, Phenyl-carbamic acid (S)-1-(4-fluoro-benzoyl)-piperidin-3-yl ester] | 
8 | > 6.00 | O=C(Nc1cccc(F)c1)O[C@H]1CCCN(C(=O)c2ccc(F)cc2)C1 [Example 5, (3-Fluoro-phenyl)-carbamic acid (S)-1-(4-fluoro-benzoyl)-piperidin-3-yl ester] | 
9 | > 6.00 | O=C(Nc1ccccc1F)O[C@H]1CCCN(C(=O)c2ccc(F)cc2)C1 [Example 6, (2-Fluoro-phenyl)-carbamic acid (S)-1-(4-fluoro-benzoyl)-piperidin-3-yl ester] | 
10 | < 5.00 | O=C(NC1CCCC1)O[C@H]1CCCN(C(=O)c2ccc(F)cc2)C1 [Example 7, Cyclopentyl-carbamic acid (S)-1-(4-fluoro-benzoyl)-piperidin-3-yl ester] | 
11 | 5.00 to 6.00 | O=C(NC1CCCCC1)O[C@H]1CCCN(C(=O)c2ccc(F)cc2)C1 [Example 8, Cyclohexyl-carbamic acid (S)-1-(4-fluoro-benzoyl)-piperidin-3-yl ester] | 
12 | 5.00 to 6.00 | O=C(Nc1ccncc1)O[C@H]1CCCN(C(=O)c2ccc(F)cc2)C1 [Example 9, Pyridin-4-yl-carbamic acid (S)-1-(4-fluoro-benzoyl)-piperidin-3-yl ester] | 
13 | 5.00 to 6.00 | O=C(NCc1ccc(F)cc1)O[C@H]1CCCN(C(=O)c2ccc(F)cc2)C1 [Example 10, (4-Fluoro-benzyl)-carbamic acid (S)-1-(4-fluoro-benzoyl)-piperidin-3-yl ester] | 
14 | 5.00 to 6.00 | O=C(Nc1ccc(F)cc1)N[C@H]1CCCN(C(=O)c2ccc(F)cc2)C1 [Example 11, 1-[(S)-1-(4-Fluoro-benzoyl)-piperidin-3-yl]-3-(4-fluoro-phenyl)-urea] | melting point: 228 to 231 °C
15 | 5.00 to 6.00 | O=C(Nc1ccccc1)OC1CCN(C(=O)c2ccc(F)cc2)C1 (stereo not drawn) [Example 12, (Phenyl)-carbamic acid-1-(4-fluoro-benzoyl)-pyrrolidin-3-yl ester] | melting point: 173 to 175 °C
